Laboratory results: the supplement of paper PMC4862054

Key:
Conditions in all cases: incubation time: 72 h
BT-474 [1] = assay: normalised response (% of control), CellTox Green; higher = less cell death (100 = DMSO, 0 = benzethonium chloride kill control)
Procedure, shortened: (§1)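 Plates were normalised with 0.1 % DMSO as 100 and a positive kill control as 0. Breast cancer cell lines in 20 µl suspension had been seeded into 384-well plates with compound at 5 concentrations in 10-fold steps over a compound-specific 10,000-fold range, incubated 72 h, and read for CellTox Green fluorescence (485/520 nm) followed by CellTiter-Glo luminescence. Each value is the normalised signal at a single concentration.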

BT-549 [2] = assay: as above
Procedure, shortened: as §1

CAL-120 [3] = assay: as above
Procedure, shortened: as §1

CAL-51 [4] = assay: as above
Procedure, shortened: as §1

CAL-85-1 [5] = assay: as above
Procedure, shortened: as §1

DU-4475 [6] = assay: as above
Procedure, shortened: as §1

HCC1143 [7] = assay: as above
Procedure, shortened: as §1

HCC1599 [8] = assay: as above
Procedure, shortened: as §1

HCC1937 [9] = assay: as above
Procedure, shortened: as §1

HDQ-P1 [10] = assay: as above
Procedure, shortened: as §1

Hs578T [11] = assay: as above
Procedure, shortened: as §1

MCF-10A [12] = assay: as above
Procedure, shortened: as §1

MDA-MB-231 [13] = assay: as above
Procedure, shortened: as §1

MDA-MB-436 [14] = assay: as above
Procedure, shortened: as §1

MDA-MB-453 [15] = assay: as above
Procedure, shortened: as §1

MDA-MB-468 [16] = assay: as above
Procedure, shortened: as §1

MFM-223 [17] = assay: as above
Procedure, shortened: as §1

BT-474 [18] = assay: normalised response (% of control), CellTiter-Glo; higher = more viable cells (100 = DMSO, 0 = benzethonium chloride kill control)
Procedure: (§2)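 DSRT, 72 h incubation, CellTox Green / CellTiter-Glo readout. Signal is normalised to DMSO and benzethonium chloride controls. Value is the normalised response at dose 3.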

BT-549 [19] = assay: as above
Procedure: as §2

CAL-120 [20] = assay: as above
Procedure: as §2

CAL-148 [21] = assay: as above
Procedure: as §2

CAL-51 [22] = assay: as above
Procedure: as §2

CAL-85-1 [23] = assay: as above
Procedure: as §2

DU-4475 [24] = assay: as above
Procedure: as §2

HCC1143 [25] = assay: as above
Procedure: as §2

HCC1599 [26] = assay: as above
Procedure: as §2

HCC1937 [27] = assay: as above
Procedure: as §2

HDQ-P1 [28] = assay: as above
Procedure: as §2

Hs578T [29] = assay: as above
Procedure: as §2

MCF-10A [30] = assay: as above
Procedure: as §2

MDA-MB-231 [31] = assay: as above
Procedure: as §2

MDA-MB-436 [32] = assay: as above
Procedure: as §2

MDA-MB-453 [33] = assay: as above
Procedure: as §2

MDA-MB-468 [34] = assay: as above
Procedure: as §2

MFM-223 [35] = assay: as above
Procedure: as §2

SK-BR-3 = assay: as above
Procedure: as §2

CAL-148 [36] = assay: normalised response (% of control), CellTox Green; higher = less cell death (100 = DMSO, 0 = benzethonium chloride kill control)
Procedure, shortened: as §1

Structure (SMILES) | normalised response (BT-474 [1]) [%] | normalised response (BT-549 [2]) [%] | normalised response (CAL-120 [3]) [%] | normalised response (CAL-51 [4]) [%] | normalised response (CAL-85-1 [5]) [%] | normalised response (DU-4475 [6]) [%] | normalised response (HCC1143 [7]) [%] | normalised response (HCC1599 [8]) [%] | normalised response (HCC1937 [9]) [%] | normalised response (HDQ-P1 [10]) [%] | normalised response (Hs578T [11]) [%] | normalised response (MCF-10A [12]) [%] | normalised response (MDA-MB-231 [13]) [%] | normalised response (MDA-MB-436 [14]) [%] | normalised response (MDA-MB-453 [15]) [%] | normalised response (MDA-MB-468 [16]) [%] | normalised response (MFM-223 [17]) [%] | normalised response (BT-474 [18]) [%] | normalised response (BT-549 [19]) [%] | normalised response (CAL-120 [20]) [%] | normalised response (CAL-148 [21]) [%] | normalised response (CAL-51 [22]) [%] | normalised response (CAL-85-1 [23]) [%] | normalised response (DU-4475 [24]) [%] | normalised response (HCC1143 [25]) [%] | normalised response (HCC1599 [26]) [%] | normalised response (HCC1937 [27]) [%] | normalised response (HDQ-P1 [28]) [%] | normalised response (Hs578T [29]) [%] | normalised response (MCF-10A [30]) [%] | normalised response (MDA-MB-231 [31]) [%] | normalised response (MDA-MB-436 [32]) [%] | normalised response (MDA-MB-453 [33]) [%] | normalised response (MDA-MB-468 [34]) [%] | normalised response (MFM-223 [35]) [%] | normalised response (SK-BR-3) [%] | normalised response (CAL-148 [36]) [%]
Nc1nc2[nH]cnc2c(=S)[nH]1 [Thioguanine] (100 nM) | 102 | 103 | 100 | 108 | 111 | 101 | 59.1 | 97.1 | 96.7 | 104 | 90.5 | 75.6 | 105 | 89 | 99 | 66.4 | 98.7 | 83.4 | 95.9 | 108 | 102 | 109 | 91.9 | 95.7 | 101 | 96.5 | 96.3 | 90.8 | 101 | 97.4 | 93.5 | 97 | 112 | 98.8 | 96.8 | 98.9 | –
Cc1ccc([N+](=O)[O-])cc1S(=O)(=O)N(C)/N=C/c1cnc2ccc(Br)cn12 [PIK-75] (100 nM) | 78.3 | 65.2 | 85.3 | 7.25 | 22 | 71.8 | 89.3 | 79.3 | 78.6 | 77.6 | 17.7 | 17.8 | -1.87 | 50.7 | 101 | 84.6 | 84 | 18.7 | 8.06 | 38.3 | 44.8 | 12.6 | 14.4 | 8.8 | 38.8 | 47.9 | 36.9 | 22.1 | 14.7 | 10.5 | 8.41 | 11.2 | 56 | 14.4 | 31.3 | 19.3 | 36.5
COc1cc2c(cc1O)CC[C@@H]1[C@@H]2CC[C@]2(C)[C@@H](O)CC[C@@H]12 [2-methoxyestradiol] (100 nM) | 94 | 110 | 98 | 78.3 | 87.6 | 98.7 | – | 102 | 97.3 | 107 | 103 | 61.8 | 99.3 | 87.4 | 101 | 69.5 | 102 | 98.5 | 95.5 | 101 | 90.6 | 63.5 | 97.3 | 101 | 100 | 89.4 | 93.4 | 103 | 102 | 94.5 | 102 | 101 | 91.1 | 103 | 94.2 | 89 | 56.1
Cn1cc(C2=Nc3cc(NC(=O)C(N)C4CCCCC4)cc4c3C2=CNNC4=O)cn1 (centres undefined) (100 nM) | 97.7 | 87.2 | 92 | 96.1 | 73 | 96.7 | 101 | 89.5 | 76.5 | 107 | 98.8 | 62.9 | 96.3 | – | 85 | 106 | 98.5 | 94.4 | 93.5 | 89 | 82.7 | 96.7 | 87.1 | 95.1 | 90.9 | 63.3 | 95.1 | 95.2 | 90.7 | 81.7 | 93.5 | 91.6 | 74.1 | 88.8 | 77.8 | 74.1 | –
